US20230285576A1, “TREATMENT OF CANCER USING A CYCLODEXTRIN-CONTAINING POLYMER-TOPOISOMERASE INHIBITOR CONJUGATE AND A PARP INHIBITOR” (ELLIPSES PHARMA LTD, priority 2020, published 2023)
Where two headings read alike, the source gives them in different places.

How the values were obtained:
HIF-1α = HIF-1α protein levels after CRLX-101 alone or combined with antiangiogenic drugs in A2780 ovarian tumour model; assay type: in vivo, athymic nude mice; settings: for HIF-1Q % of Control mean + SD: CRLX-101 5 mg/kg QW × 2, n=3
[1] = test system: carbonic anhydrase 9 (CA9); experiment: CA9 immunostaining in HT-29 colorectal xenograft tumours; assay type: in vivo, nude mouse; settings: 7 days after a single IV treatment; CRLX-101 5 mg/kg, CPT 0.5 mg/kg
Text: Tumours were harvested 7 days after treatment and immunostained with anti-CA9 antibody. Scale bar=50 μm.

NUGC4 = experiment: MTS viability assay, CRLX-101 alone and with Olaparib, NUGC4; assay type: cell-based; settings: Homo sapiens, NUGC-4, 72 hours, Olaparib alone, read-out: IC50 relative
Protocol: (§1) The optimal seeding density for each cell line (DU145, Capan-1, Hs 766T, PANC-1, NUGC4, HEY, OVCAR3, OAW28 and NCI-H510A) will be determined prior to running the assay. Cells will be seeded in 50 μL media (in triplicate for each condition). Three 96 well flat bottom tissue culture plates will be required per cell line (See appendix I). Cells will be allowed to adhere overnight at 37° C., 5% CO2, 20% O2 before compound is added.
(§2) Day 5: Analysis of Proliferation • Remove plates from the incubator and perform a Cell Titre 96 Aqueous One Solution Cell Proliferation Assay (Promega #G3582) according to the manufacturers protocol. • Record absorbance at 490 nm using colorimetric plate reader.

DU145 = experiment: MTS viability assay, CRLX-101 alone and with Olaparib, DU145; assay type: cell-based; settings: Homo sapiens, DU-145, 72 hours, Olaparib alone
Protocol: as §1, §2

OVCAR3 = experiment: MTS viability assay, CRLX-101 alone and with Olaparib, OVCAR3; assay type: cell-based; settings: Homo sapiens, OVCAR-3, 72 hours, Olaparib alone
Protocol: as §1, §2

OAW28 = experiment: MTS viability assay, CRLX-101 alone and with Olaparib, OAW28; assay type: cell-based; settings: Homo sapiens, OAW-28, 72 hours, Olaparib alone, read-out: IC50 relative
Protocol: as §1, §2

Capan-1 [2] = experiment: MTS viability assay, CRLX-101 alone and with Olaparib, Capan-1 (schedule 2); assay type: cell-based; settings: Homo sapiens
Protocol: as §1, §2

NCI-H510A = experiment: MTS viability assay, CRLX-101 alone and with Olaparib, NCI-H510A; assay type: cell-based; settings: Homo sapiens, 72 hours, Olaparib alone, read-out: IC50 relative
Protocol: as §1, §2

[3] = test system: NCI-H417a small-cell lung cancer tumour; assay type: in vivo; settings: wild type BRCA1 and BRCA2
Capan-1 [4] = experiment: MTS viability assay, CRLX-101 alone and with Olaparib, Capan-1 (schedule 1); assay type: cell-based; settings: Homo sapiens, 72 hours, Olaparib alone
Protocol: as §1, §2

Hs 766T = experiment: MTS viability assay, CRLX-101 alone and with Olaparib, Hs 766T; assay type: cell-based; settings: Hs766T, 72 hours, Olaparib alone, read-out: IC50 relative
Protocol: as §1, §2

PANC-1 = experiment: MTS viability assay, CRLX-101 alone and with Olaparib, PANC-1; assay type: cell-based; settings: Homo sapiens, 72 hours, Olaparib alone
Protocol: as §1, §2

SUM159 tumours = experiment: Tumour growth and tumour-initiating capacity in orthotopic SUM159 triple-negative breast cancer model; assay type: in vivo, mice; settings: pre-treatment for 2 weeks
Text: Such stimulation of CSCs could increase drug resistance and metastasis, and may be further enhanced by treatment with antiangiogenic drugs, which can increase tumour hypoxia by reducing blood flow to tumours. Inhibition of HIF-1α might therefore be beneficial to patients by reducing CSCs in tumours. […] Previously published studies have shown that Bevacizumab increases the CSC population mediated primarily by hypoxia induced up-regulation of HIF-1α. […] At the end of these 2 weeks, tumours were extracted and 100 tumour cells were implanted orthotopically into new, untreated mice.
Mice were dosed for two weeks at the dose level and frequency indicated in the legend. Tumour growth curves represent mean tumour volume and error bars represent standard deviation.

HIF-2α = experiment: Time course of HIF-2α inhibition in xenograft tumours (western blot); assay type: in vivo, nude mouse; settings: single dose; same time period
Protocol: Tumours were flash-frozen and HIF-1α or HIF-2α protein levels were measured via western blot analysis, quantified using infrared fluorescence detection, normalised to actin levels and calculated as a percentage of HIF protein levels in saline-treated mice.

[5] = test system: SKOV-3 human ovarian xenograft; settings: CRLX-101 9 mg/kg and/or Paclitaxel 30 mg/kg, QW × 3 IV
Text: Body weight curves are means relative to the initial body weight, with bars indicating standard deviation. Survival is indicated as the percentage of animals remaining on study because mice bearing tumours that reached a predetermined cut off size (1500 mm3) were removed from the experiment.

[6] = Mus musculus, A2780, read-out: HIF-1Q % of Control mean + SD

Compound: Aflibercept: antiangiogenic drug
- HIF-1Q % of Control mean + SD (HIF-1α; Aflibercept study, Aflibercept 25 mg/kg Days 1, 4, 8): 235 ± 80%

Compound: CC[C@@]1(O)C(=O)OCc2c1cc1n(c2=O)Cc2cc3ccccc3nc2-1 [CPT, 20(S)-Camptothecin]
- Inhibition of CA9 in tumours [1]: not

Compound: O=C(c1cc(Cc2n[nH]c(=O)c3ccccc23)ccc1F)N1CCN(C(=O)C2CC2)CC1 [Olaparib, 4-[3-(4-cyclopropanecarbonyl-piperazine-1-carbonyl)-4-fluoro-benzyl]-2H-phthalazin-1-one]
- IC50 (NUGC4): ~11.5 µM
- IC50 (DU145; read-out: IC50 Absolute): 93.1 µM
- IC50 (DU145; read-out: IC50 relative): 11.6 µM
- IC50 (OVCAR3; read-out: IC50 Absolute): 43.4 µM
- IC50 (OVCAR3; read-out: IC50 relative): 3.03 µM
- IC50 (OAW28): ~8.88 µM
- IC50 (Capan-1 [2]; CAPAN-1, read-out: IC50 relative): 0.00546 µM
- IC50 (Capan-1 [2]; Capan-1 (schedule 2), Olaparib alone, read-out: IC50 Absolute): 488 µM
- IC50 (NCI-H510A): 2660 nM
- Response of the model to monotherapy [3]: relatively non-responsive
- IC50 (Capan-1 [4]; read-out: IC50 Absolute): 40.1 µM
- IC50 (Capan-1 [4]; read-out: IC50 relative): 5.71 µM
- IC50 (Hs 766T): 14.1 µM
- IC50 (PANC-1; read-out: IC50 Absolute): 79.2 µM
- IC50 (PANC-1; read-out: IC50 relative): 9.26 µM

Compound: Bevacizumab: antiangiogenic drug, anti-VEGF antibody
- Tumour-initiating capacity of 100 re-implanted tumour cells (SUM159 tumours): enhanced tumour-initiating capacity compared to control
- HIF-1Q % of Control mean + SD (HIF-1α; Bevacizumab study, Bevacizumab 5 mg/kg Days 1, 4, 8): 127 ± 18%

Compound: Cc1ccc(Nc2nccc(N(C)c3ccc4c(C)n(C)nc4c3)n2)cc1S(N)(=O)=O [Pazopanib]
- HIF-1α protein level (% of control) at 150 mg/kg (HIF-1α; [6]): 226 ± 127%

Compound: CNC(=O)c1cc(Oc2ccc(NC(=O)Nc3ccc(Cl)c(C(F)(F)F)c3)c(F)c2)ccn1 [Regorafenib]
- HIF-1α protein level (% of control) at 50 mg/kg (HIF-1α; [6]): 171 ± 4%

Compound: CC[C@@]1(O)C(=O)OCc2c1cc1n(c2=O)Cc2cc3c(CN(C)C)c(O)ccc3nc2-1 [Topotecan]
- Inhibition of HIF-2α, in words (HIF-2α): unable to significantly inhibit

Compound: CC(=O)O[C@H]1C(=O)[C@@]2(C)[C@H]([C@H](OC(=O)c3ccccc3)[C@]3(O)C[C@H](OC(=O)[C@H](O)[C@@H](NC(=O)c4ccccc4)c4ccccc4)C(C)=C1C3(C)C)[C@]1(OC(C)=O)CO[C@@H]1C[C@@H]2O [Paclitaxel]
- CR (complete regressions) ([5]; N=10): 1
- PR (partial regressions) ([5]; N=10): 0
- TFS (tumour-free survivors) ([5]; N=10): 1
- Median TTE ([5]; endpoint 1500 mm3, N=10): 42.8 days
- TGD ([5]; vs control group): 18%
